From patent publication US20240279233A1, “MACROCYCLIC TAK1 INHIBITORS” (Aqilion AB, priority 2021, published 2024)
In brackets after ≈: the same amount, converted by molar mass. Several values for one entry are separate records, joined by “and”; a condition that tells them apart may be missing. Identical values can stand only once. Like-named read-outs stand apart in the source and are kept apart here.

What was measured:
[1] = amide bond, 14-membered ring
[2] = target: human recombinant TAK1-TAB1 Kinase (TAK1 (1-303) and TAB1 (437-end)) (Homo sapiens (Human), UniProt O43318); test: TAK1 biochemical ADP-Glo kinase assay; conditions: MBP substrate
Sequence of human recombinant TAK1-TAB1 Kinase (TAK1 (1-303) and TAB1 (437-end)) (O43318 other isoform, or with tags, fused parts or gaps): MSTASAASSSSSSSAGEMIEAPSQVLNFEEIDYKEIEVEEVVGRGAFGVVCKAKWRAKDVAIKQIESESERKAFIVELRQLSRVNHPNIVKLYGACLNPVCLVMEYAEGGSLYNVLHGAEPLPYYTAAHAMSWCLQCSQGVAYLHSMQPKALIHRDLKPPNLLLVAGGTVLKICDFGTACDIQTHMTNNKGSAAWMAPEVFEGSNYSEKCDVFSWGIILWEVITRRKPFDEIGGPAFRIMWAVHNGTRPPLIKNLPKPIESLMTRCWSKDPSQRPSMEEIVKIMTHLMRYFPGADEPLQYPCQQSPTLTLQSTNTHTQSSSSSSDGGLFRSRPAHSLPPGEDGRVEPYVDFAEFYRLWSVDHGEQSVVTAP
Outline: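 Inhibition of human recombinant TAK1-TAB1 kinase was measured with a Promega ADP-Glo luminescence assay in 384-well plates. Compounds in 5% DMSO were pre-incubated 10 min with 2 μl TAK1-TAB1 (7.5 ng/μl) in buffer of Tris pH 7.5, MgCl2, DTT and BSA. MBP substrate and ATP were then added for 1 hour at room temperature. ADP-Glo reagent and kinase detection substrate followed, luminescence was read on an Envision, and IC50 came from non-linear regression.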

[3] = Solubility assay in phosphate buffer; conditions: phosphate buffer 100 mM, pH 7.4, room temperature, 20-24 h, LC-UV
Experimental: The aqueous solubility of selected example compounds was determined as follows; 6 μL of DMSO stock solution of the selected example was added to 594 μL phosphate buffer (100 mM, pH 7.4). The resulting mixture was equilibrated over night (20-24 h, Alligator Shaker, room temperature). The mixture was then filtered (Millex LH 0.45 μm) and the concentration/solubility was determined by LC-UV quantification.

[4] = 10 μM ATP, read-out: TAK1 Mean IC50 (nM) @ 10 μM ATP
[5] = phosphate buffer, pH 7.4, aqueous buffer, kinetic from dmso stock, Solubility (μM)
[6] = 1 mM ATP, read-out: TAK1 Mean IC50 (nM) @ 1 mM ATP

Row | SMILES | IC50 [2, 4] [nM] | solubility [3, 5] [µM] | other results
1 | CC(=O)c1cc(C(=O)N(C)C)c2c(c1)nc1n2[C@H](C)CCCCNC(=O)c2cccc(c2)C(=O)N1 | – | – | ring closure, yield after HPLC ([1]; from CC(=O)c1cc(C(=O)N(C)C)c2c(c1)nc(NC(=O)c1cccc(C(=O)O)c1)n2[C@H](C)CCCCN, HATU/DIEA, THF, 0.49 mM, 25.0 °C, 120.0 h): 34%
2 | CC1CCCCNC(=O)c2cccc(c2)C(=O)Nc2nc3cccc(-c4ccc[nH]c4=O)c3n21 (stereo not shown) | – | – | ring closure, yield after HPLC ([1]; from CC(CCCCN)n1c(NC(=O)c2cccc(C(=O)O)c2)nc2cccc(-c3ccc[nH]c3=O)c21, TCFH/NMI, DMF, 3.6 mM, 1.0 h): 21%
3 | CC1CCCCNC(=O)c2cccc(c2)C(=O)Nc2nc3cccc(C(=O)N(C)C)c3n21 (stereo not shown) | – | – | ring closure, yield after HPLC ([1]; from CC(CCCCN)n1c(NC(=O)c2cccc(C(=O)O)c2)nc2cccc(C(=O)N(C)C)c21, TCFH/NMI, MeCN/DMF, 1.6 mM, 1.0 h): 12%
4 | CN(C)C(=O)c1cccc2nc3n(c12)C1(CCCCNC(=O)c2cccc(c2)C(=O)N3)CC1 | – | – | ring closure, yield after HPLC ([1]; from CN(C)C(=O)c1cccc2nc(NC(=O)c3cccc(C(=O)O)c3)n(C3(CCCCN)CC3)c12, TCFH/NMI, MeCN/DMF, 0.31 mM, 25.0 °C, 16.0 h): 18%
5 | CN1CCN(Cc2ccc3c(c2)nc2n3CCCCCNC(=O)c3cc(ccc3F)C(=O)N2)CC1 | – | – | ring closure, yield after HPLC ([1]; from CN1CCN(Cc2ccc3c(c2)nc(NC(=O)c2ccc(F)c(C(=O)O)c2)n3CCCCCN)CC1, TCFH/NMI, DMF/MeCN, 2.2 mM, 25.0 °C, 2.0 h): 16%
6 | C[C@@H]1CCCCNC(=O)c2cccc(c2)C(=O)Nc2nc3ccc(Cl)c(C(=O)N(C)C)c3n21 | – | – | ring closure, yield after HPLC ([1]; from C[C@H](CCCCN)n1c(NC(=O)c2cccc(C(=O)O)c2)nc2ccc(Cl)c(C(=O)N(C)C)c21, HATU/DIEA, THF, 0.5 mM, 60.0 °C, 16.0 h): 5.3% and 5.7%
7 | C[C@H]1CCCCNC(=O)c2cccc(c2)C(=O)Nc2nc3ccc(Cl)c(C(=O)N(C)C)c3n21 | – | – | ring closure, yield after HPLC ([1]; from C[C@@H](CCCCN)n1c(NC(=O)c2cccc(C(=O)O)c2)nc2ccc(Cl)c(C(=O)N(C)C)c21, HATU/DIEA, THF, 0.5 mM, 60.0 °C, 16.0 h): 7.1% and 6.3%
8 | Cc1noc(-c2cccc3nc4n(c23)[C@@H](C)CCCCNC(=O)c2cccc(c2)C(=O)N4)n1 | – | – | ring closure, yield after HPLC ([1]; from Cc1noc(-c2cccc3nc(NC(=O)c4cccc(C(=O)O)c4)n([C@@H](C)CCCCN)c23)n1, TCFH/NMI, MeCN, 0.23 mM, 25.0 °C, 16.0 h): 92%
9 | CC1CCCCNC(=O)c2cccc(c2)C(=O)Nc2nc3cccc(-c4ccc[n+]([O-])c4)c3n21 (stereo not shown) [Example 33, (E)-3-(11-methyl-3,5-dioxo-1^2,1^3-dihydro-1^1H-2,6-diaza-1(2,1)-benzo[d]imidazola-4(1,3)-benzenacycloundecaphane-1^7-yl)pyridine 1-oxide] | 8 | – | ring closure, yield after HPLC ([1]; from CC(CCCCN)n1c(NC(=O)c2cccc(C(=O)O)c2)nc2cccc(-c3ccc[n+]([O-])c3)c21, HATU/DIEA, THF, 0.46 mM, 32.0 h, 2 steps): 7%
10 | CC(C)N(C)C(=O)c1cccc2c1N1/C(=N/C(=O)c3cccc(c3)C(=O)NCCCCC1C)N2 (stereo not shown) [Example 48, (E)-N-isopropyl-N,11-dimethyl-3,5-dioxo-1^2,1^3-dihydro-1^1H-2,6-diaza-1(2,1)-benzo[d]imidazola-4(1,3)-benzenacycloundecaphane-1^7-carboxamide] | 1 | – | solubility [3]: 24.0 µM (≈ 11.1 µg/mL)
11 | COC1(C)CN(C(=O)c2cccc3c2N2/C(=N/C(=O)c4cccc(c4)C(=O)NCCCCC2C)N3)C1 (stereo not shown) [Example 49, (E)-1^7-(3-methoxy-3-methylazetidine-1-carbonyl)-11-methyl-1^2,1^3-dihydro-1^1H-2,6-diaza-1(2,1)-benzo[d]imidazola-4(1,3)-benzenacycloundecaphane-3,5-dione] | 3 | 89 (≈ 43.6 µg/mL) | –
12 | COC1(C)CN(C(=O)c2cccc3c2N2/C(=N/C(=O)c4cccc(c4)C(=O)NCCCCC2C)N3)C1 (stereo not shown) [Example 50, (E)-1^7-(3-methoxy-3-methylazetidine-1-carbonyl)-11-methyl-1^2,1^3-dihydro-1^1H-2,6-diaza-1(2,1)-benzo[d]imidazola-4(1,3)-benzenacycloundecaphane-3,5-dione] | 3 | – | solubility [3]: 80.0 µM (≈ 39.2 µg/mL)
13 | C[C@@H]1CCCCNC(=O)c2cccc(c2)C(=O)Nc2nc3ccc(Cl)c(C(=O)N(C)C)c3n21 [Example 55, (R,E)-1^6-chloro-N,N,11-trimethyl-3,5-dioxo-1^2,1^3-dihydro-1^1H-2,6-diaza-1(2,1)-benzo[d]imidazola-4(1,3)-benzenacycloundecaphane-1^7-carboxamide] | 6 | – | solubility [3]: 74.0 µM (≈ 34.6 µg/mL)
14 | C[C@@H]1CCCCNC(=O)c2cccc(c2)C(=O)Nc2nc3ccc(Cl)c(C(=O)N(C)C)c3n21 [Example 56, (R,E)-1^6-chloro-N,N,11-trimethyl-3,5-dioxo-1^2,1^3-dihydro-1^1H-2,6-diaza-1(2,1)-benzo[d]imidazola-4(1,3)-benzenacycloundecaphane-1^7-carboxamide] | 16 | – | solubility [3]: 7.1 µM (≈ 3.32 µg/mL)
15 | [2H]C([2H])([2H])N(C(=O)c1cccc2c1N1/C(=N/C(=O)c3cccc(c3)C(=O)NCCCC[C@H]1C)N2)C([2H])([2H])[2H] [Example 64, (R,E)-11-methyl-N,N-bis(methyl-d3)-3,5-dioxo-1^2,1^3-dihydro-1^1H-2,6-diaza-1(2,1)-benzo[d]imidazola-4(1,3)-benzenacycloundecaphane-1^7-carboxamide] | 3 | 44 (≈ 19.3 µg/mL) | –
16 | C[C@@H]1CCCCNC(=O)c2cccc(c2)C(=O)Nc2nc3cc(C(C)(C)O)cc(C(=O)N(C)C)c3n21 [Example 69, (R,E)-1^5-(2-hydroxypropan-2-yl)-N,N,11-trimethyl-3,5-dioxo-1^2,1^3-dihydro-1^1H-2,6-diaza-1(2,1)-benzo[d]imidazola-4(1,3)-benzenacycloundecaphane-1^7-carboxamide] | 2 | 93 (≈ 45.7 µg/mL) | –
17 | C[C@H]1CCCCNC(=O)c2cccc(c2)C(=O)/N=C2\Nc3cccc(N4CCN(C)C4=O)c3N21 [Example 74, (S,E)-11-methyl-1^7-(3-methyl-2-oxoimidazolidin-1-yl)-1^2,1^3-dihydro-1H-2,6-diaza-1(2,1)-benzo[d]imidazola-4(1,3)-benzenacycloundecaphane-3,5-dione] | 7 | 90 (≈ 41.4 µg/mL) | IC50 [2, 6]: 11 nM
18 | C[C@H]1CCCCNC(=O)c2cccc(c2)C(=O)Nc2nc3cccc(-c4ncn(C)n4)c3n21 [Example 84, (S)-11-methyl-1^7-(1-methyl-1H-1,2,4-triazol-3-yl)-1^1H-2,6-diaza-1(2,1)-benzo[d]imidazola-4(1,3)-benzenacycloundecaphane-3,5-dione] | 5 | 15 (≈ 6.65 µg/mL) | –
19 | C[C@H]1CCCCNC(=O)c2cccc(c2)C(=O)Nc2nc3cccc(-c4ncnn4C)c3n21 [Example 86, (S,E)-11-methyl-1^7-(1-methyl-1H-1,2,4-triazol-5-yl)-1^1H-2,6-diaza-1(2,1)-benzo[d]imidazola-4(1,3)-benzenacycloundecaphane-3,5-dione] | 4 | 33 (≈ 14.6 µg/mL) | IC50 [2, 6]: 9 nM
20 | C[C@H]1CCCCNC(=O)c2cccc(c2)C(=O)/N=C2\Nc3cccc(-c4cn(C)nn4)c3N21 [Example 87, (S,E)-11-methyl-1^7-(1-methyl-1H-1,2,3-triazol-4-yl)-1^2,1^3-dihydro-1^1H-2,6-diaza-1(2,1)-benzo[d]imidazola-4(1,3)-benzenacycloundecaphane-3,5-dione] | 5 | 4.7 (≈ 2.08 µg/mL) | IC50 [2, 6]: 9 nM
21 | CN1CCN(C(=O)c2ccc3nc4n(c3c2)CCCCCNC(=O)c2cccc(c2)C(=O)N4)CC1 [Example 97, (E)-1^6-(4-methylpiperazine-1-carbonyl)-1^2,1^3-dihydro-1^1H-2,6-diaza-1(2,1)-benzo[d]imidazola-4(1,3)-benzenacycloundecaphane-3,5-dione] | 4 | 5 (≈ 2.37 µg/mL) | –
22 | O=C1/N=C2\Nc3ccc(C(=O)N4CCN(C5COC5)CC4)cc3N2CCCCCNC(=O)c2cccc1c2 [Example 98, (E)-1^6-(4-(oxetan-3-yl)piperazine-1-carbonyl)-1^2,1^3-dihydro-1^1H-2,6-diaza-1(2,1)-benzo[d]imidazola-4(1,3)-benzenacycloundecaphane-3,5-dione] | 5 | 4.7 (≈ 2.43 µg/mL) | –
23 | O=C1/N=C2\Nc3ccc(C(=O)N4CCNCC4)cc3N2CCCCCNC(=O)c2cccc1c2 [Example 100, (E)-1^6-(piperazine-1-carbonyl)-1^2,1^3-dihydro-1^1H-2,6-diaza-1(2,1)-benzo[d]imidazola-4(1,3)-benzenacycloundecaphane-3,5-dione] | 2 | 83.1 (≈ 38.3 µg/mL) | –
24 | CN1CCN(Cc2ccc3c(c2)N2CCCCCNC(=O)c4cccc(c4)C(=O)/N=C/2N3)CC1 [Example 101, (E)-1^6-((4-methylpiperazin-1-yl)methyl)-1^2,1^3-dihydro-1^1H-2,6-diaza-1(2,1)-benzo[d]imidazola-4(1,3)-benzenacycloundecaphane-3,5-dione] | 8 | 20.8 (≈ 9.58 µg/mL) | –
25 | C[C@H]1CCCCNC(=O)c2cccc(c2)C(=O)/N=C2\Nc3cc(C(C)(C)O)cc(C(=O)N(C)C)c3N21 [Example 123, (S,E)-1^5-(2-hydroxypropan-2-yl)-N,N,11-trimethyl-3,5-dioxo-1^2,1^3-dihydro-1^1H-2,6-diaza-1(2,1)-benzo[d]imidazola-4(1,3)-benzenacycloundecaphane-1^7-carboxamide] | 4 | 90 (≈ 44.2 µg/mL) | IC50 [2, 6]: 11 nM
